Counter-ions that a name gives are not always drawn.
Legend:
Lovo cells = experiment: Cancer cell proliferation inhibition (Cell Counting Kit-8), colorectal cancer cell line; format: cell-based; details: 1000 nM, cultured seven to 11 days; for inhibition at 1 µM: Homo sapiens, LoVo, 264 h, read-out: % inhibition rate LoVo
Summary of the method: (§1)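 Single-concentration growth test: compound at 1000 nM was applied to cells seeded at 100 to 1,000 per well and cultured seven to 11 days. Proliferation was then quantified with Cell Counting Kit-8, and percent inhibition was taken relative to control wells.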

EZH1 = EZH1 (Homo sapiens, UniProt Q92800); experiment: AlphaLISA enzyme activity inhibition, EZH1; format: biochemical; details: for inhibition at 0.005 µM: 5nM test substance
Summary of the method: (§2)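 EZH1 or EZH2 was mixed with compound at 5 nM or 10 nM final in 20 mM Tris pH 8.0, 0.1% BSA, 0.5 mM DTT, then histone H3 peptide and SAM were added. After 2 h reaction, AlphaLISA acceptor and donor beads detected methylation; inhibition rate was calculated against DMSO control.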

MIA-PaCa-2 cells = experiment: Cancer cell proliferation inhibition (Cell Counting Kit-8), pancreatic cancer cell line; format: cell-based; details: 1000 nM, cultured seven to 11 days; for inhibition at 1 µM: Homo sapiens, MIA PaCa-2, 264 h, read-out: % inhibition rate MIA-Paca2; for % inhibition rate MIA-Paca2: 1 µM
Summary of the method: as §1

G401 cells = experiment: Cancer cell proliferation inhibition (Cell Counting Kit-8), rhabdoid tumor cell line; format: cell-based; details: 1000 nM, cultured seven to 11 days; for inhibition at 1 µM: Homo sapiens, G-401, 264 h, read-out: % inhibition rate G401
Summary of the method: (§3)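 Cells grown in RPMI1640, McCoy's 5a, L-15 or DMEM with 10% FBS, seeded at 100 to 1,000 cells/well and treated with test substance at 1000 nM for 7 to 11 days. Viability read by CCK-8; % inhibition = {1−(test/control)} × 100.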

NCI-H1299 cells = experiment: Cancer cell proliferation inhibition (Cell Counting Kit-8), lung cancer cell line; format: cell-based; details: 1000 nM, cultured seven to 11 days; for inhibition at 1 µM: Homo sapiens, NCI-H1299, 264 h, read-out: % inhibition rate NCI-H129 9
Summary of the method: as §1

SW-13 cells = experiment: Cancer cell proliferation inhibition (Cell Counting Kit-8), adrenal cancer cell line; format: cell-based; details: 1000 nM, cultured seven to 11 days; for inhibition at 1 µM: Homo sapiens, SW13, 264 h, read-out: % inhibition rate SW-13; for % inhibition rate SW-13: 1 µM
Summary of the method: as §1

MKN-45 cells = experiment: Cancer cell proliferation inhibition (Cell Counting Kit-8), gastric cancer cell line; format: cell-based; details: 1000 nM, cultured seven to 11 days; for inhibition at 1 µM: Homo sapiens, MKN-45, 264 h, read-out: % inhibition rate MKN -45; for % inhibition rate MKN -45: 1 µM
Summary of the method: as §3

EZH2 = EZH2 (Homo sapiens, UniProt Q15910); experiment: AlphaLISA enzyme activity inhibition, EZH2; format: biochemical
Summary of the method: as §2

Sequence of EZH1 (Q92800 whole entry, species assumed): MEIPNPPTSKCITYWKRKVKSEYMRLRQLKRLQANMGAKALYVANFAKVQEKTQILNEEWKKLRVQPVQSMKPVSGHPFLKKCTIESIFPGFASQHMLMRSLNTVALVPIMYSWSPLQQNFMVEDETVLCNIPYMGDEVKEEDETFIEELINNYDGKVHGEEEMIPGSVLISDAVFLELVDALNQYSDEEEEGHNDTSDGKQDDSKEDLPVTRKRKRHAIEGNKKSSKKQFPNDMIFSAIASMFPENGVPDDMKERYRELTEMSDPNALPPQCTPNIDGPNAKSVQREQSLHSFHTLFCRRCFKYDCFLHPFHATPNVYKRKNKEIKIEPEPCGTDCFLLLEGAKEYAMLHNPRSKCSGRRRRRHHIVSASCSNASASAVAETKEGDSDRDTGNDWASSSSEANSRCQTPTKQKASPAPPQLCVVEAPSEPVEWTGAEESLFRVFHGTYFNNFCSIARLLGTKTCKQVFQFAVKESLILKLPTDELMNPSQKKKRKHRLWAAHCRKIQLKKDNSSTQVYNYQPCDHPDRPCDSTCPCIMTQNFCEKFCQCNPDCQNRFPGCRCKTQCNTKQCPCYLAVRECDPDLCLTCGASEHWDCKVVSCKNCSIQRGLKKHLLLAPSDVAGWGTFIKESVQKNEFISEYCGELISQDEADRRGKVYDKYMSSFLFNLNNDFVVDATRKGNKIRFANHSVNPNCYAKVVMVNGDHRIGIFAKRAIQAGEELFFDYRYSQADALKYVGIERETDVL
Sequence of EZH1 (O75530 whole entry partner, species assumed): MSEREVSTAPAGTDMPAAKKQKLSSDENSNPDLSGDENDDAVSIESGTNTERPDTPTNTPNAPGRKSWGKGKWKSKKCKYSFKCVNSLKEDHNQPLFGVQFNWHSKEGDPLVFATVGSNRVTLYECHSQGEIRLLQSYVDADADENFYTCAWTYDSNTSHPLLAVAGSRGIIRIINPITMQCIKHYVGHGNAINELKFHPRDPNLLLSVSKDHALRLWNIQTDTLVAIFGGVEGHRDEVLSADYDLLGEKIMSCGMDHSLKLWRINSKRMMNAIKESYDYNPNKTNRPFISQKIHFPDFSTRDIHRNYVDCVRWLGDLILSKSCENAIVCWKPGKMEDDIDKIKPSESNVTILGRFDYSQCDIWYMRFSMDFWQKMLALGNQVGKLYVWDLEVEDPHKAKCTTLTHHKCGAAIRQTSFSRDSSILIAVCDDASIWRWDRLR
Sequence of EZH1 (Q15022 whole entry partner, species assumed): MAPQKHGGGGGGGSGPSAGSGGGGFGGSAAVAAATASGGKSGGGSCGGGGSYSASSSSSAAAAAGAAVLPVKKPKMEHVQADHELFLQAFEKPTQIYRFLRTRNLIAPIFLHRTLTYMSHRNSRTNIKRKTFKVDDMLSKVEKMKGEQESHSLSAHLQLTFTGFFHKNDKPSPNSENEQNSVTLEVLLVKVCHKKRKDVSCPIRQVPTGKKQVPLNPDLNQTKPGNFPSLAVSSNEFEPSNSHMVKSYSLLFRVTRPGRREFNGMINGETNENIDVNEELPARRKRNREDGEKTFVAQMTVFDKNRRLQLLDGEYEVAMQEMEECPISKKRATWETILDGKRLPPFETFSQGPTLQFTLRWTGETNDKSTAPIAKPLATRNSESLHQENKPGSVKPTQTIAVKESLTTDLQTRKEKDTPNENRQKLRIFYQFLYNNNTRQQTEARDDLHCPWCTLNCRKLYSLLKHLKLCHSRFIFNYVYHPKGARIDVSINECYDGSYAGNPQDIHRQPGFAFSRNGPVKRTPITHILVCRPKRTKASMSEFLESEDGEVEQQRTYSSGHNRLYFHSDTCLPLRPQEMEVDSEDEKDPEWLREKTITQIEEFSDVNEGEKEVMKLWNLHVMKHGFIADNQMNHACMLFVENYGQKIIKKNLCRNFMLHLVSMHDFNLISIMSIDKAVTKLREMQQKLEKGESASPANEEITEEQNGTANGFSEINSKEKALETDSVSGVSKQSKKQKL
Sequence of EZH2 (Q15910 whole entry, species assumed): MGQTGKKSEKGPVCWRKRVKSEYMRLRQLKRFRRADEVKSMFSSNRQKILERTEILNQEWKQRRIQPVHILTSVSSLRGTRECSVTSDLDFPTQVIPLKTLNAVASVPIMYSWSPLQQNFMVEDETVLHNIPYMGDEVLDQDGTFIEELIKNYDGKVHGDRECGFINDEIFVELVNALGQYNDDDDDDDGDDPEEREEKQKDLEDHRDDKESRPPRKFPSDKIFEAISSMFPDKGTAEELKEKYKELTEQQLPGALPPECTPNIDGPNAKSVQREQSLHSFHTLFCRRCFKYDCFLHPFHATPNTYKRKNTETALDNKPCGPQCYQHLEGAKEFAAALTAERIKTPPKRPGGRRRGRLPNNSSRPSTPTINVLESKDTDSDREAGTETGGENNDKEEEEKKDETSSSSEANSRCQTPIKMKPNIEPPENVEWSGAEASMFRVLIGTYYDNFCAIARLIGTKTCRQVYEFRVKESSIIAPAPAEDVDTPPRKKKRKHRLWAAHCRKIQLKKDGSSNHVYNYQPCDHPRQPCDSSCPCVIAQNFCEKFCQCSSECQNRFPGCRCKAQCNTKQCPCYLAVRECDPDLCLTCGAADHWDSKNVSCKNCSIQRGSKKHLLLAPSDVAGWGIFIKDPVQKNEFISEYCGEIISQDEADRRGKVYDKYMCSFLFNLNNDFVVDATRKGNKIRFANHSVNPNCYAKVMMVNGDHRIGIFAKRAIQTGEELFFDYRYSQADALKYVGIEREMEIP
Sequence of EZH2 (O75530 whole entry partner, species assumed): as the sequence (O75530 whole entry partner, species assumed) above
Sequence of EZH2 (Q15022 whole entry partner, species assumed): as the sequence (Q15022 whole entry partner, species assumed) above

Row | Structure (SMILES) | inhibition at 0.005 µM (EZH1) [%] | inhibition at 0.01 µM (EZH1; 10nM test substance) [%] | inhibition at 0.005 µM (EZH2; 5nM test substance) [%] | inhibition at 0.01 µM (EZH2; 10nM test substance) [%] | Enzyme inhibition % EZH1 (EZH1; 10nM test substance, 0.01 µM) [%] | Enzyme inhibition % EZH2 (EZH2; 5nM test substance, 0.005 µM) [%] | Enzyme inhibition % EZH2 (EZH2; 10nM test substance, 0.01 µM) [%] | inhibition at 1 µM (Lovo cells) [%] | inhibition at 1 µM (MIA-PaCa-2 cells) [%] | inhibition at 1 µM (G401 cells) [%] | inhibition at 1 µM (NCI-H1299 cells) [%] | inhibition at 1 µM (SW-13 cells) [%] | inhibition at 1 µM (MKN-45 cells) [%] | % inhibition rate MIA-Paca2 (MIA-PaCa-2 cells) | % inhibition rate SW-13 (SW-13 cells) | % inhibition rate MKN -45 (MKN-45 cells) | % inhibition rate LoVo (Lovo cells) | % inhibition rate G401 (G401 cells) | % inhibition rate NCI-H129 9 (NCI-H1299 cells)
1 | CSc1cc(C)[nH]c(=O)c1CNC(=O)c1cc(-c2ccc(N3C[C@@H](C)O[C@@H](C)C3)nc2)c2c(c1C)OC(C)([C@H]1CC[C@H](N)CC1)O2 (stereo partly drawn) [Compound 100, 2-(trans-4-aminocyclohexyl)-7-(6-((2S,6R)-2,6-dimethylmorpholino)pyridin-3-yl)-2,4-dimethyl-N-((6-methyl-4-(methylthio)-2-oxo-1,2-dihydropyridin-3-yl)methyl)benzo[d][1,3]dioxole-5-carboxamide hydrochloride] | 30 | 68.1 | 96.3 | 100 |  |  |  | ≤ 30 | ≤ 30 | ≥ 70 | ≤ 30 | 30 to 70 | 30 to 70 |  |  |  |  |  | 
2 | CSc1cc(C)[nH]c(=O)c1CNC(=O)c1cc(-c2ccc(N3C[C@@H](C)O[C@@H](C)C3)nc2)c2c(c1C)OC(C)([C@H]1CC[C@H](N3CC(O)C3)CC1)O2 (stereo partly drawn) [Compound 101, 7-(6-((2S,6R)-2,6-dimethylmorpholino)pyridin-3-yl)-2-(trans-4-(3-hydroxyazetidin-1-yl)cyclohexyl)-2,4-dimethyl-N-((6-methyl-4-(methylthio)-2-oxo-1,2-dihydropyridin-3-yl)methyl)benzo[d][1,3]dioxole-5-carboxamide] | 38.8 | 78.1 | 98.7 | 100 |  |  |  | 30 to 70 | ≤ 30 | ≥ 70 | ≤ 30 | 30 to 70 | ≤ 30 |  |  |  |  |  | 
3 | CSc1cc(C)[nH]c(=O)c1CNC(=O)c1cc(-c2ccc(N3C[C@@H](C)O[C@@H](C)C3)nc2)c2c(c1C)OC(C)([C@H]1CC[C@H](N3CC(OCC(F)F)C3)CC1)O2 (stereo partly drawn) [Compound 103, 2-(trans-4-(3-(2,2-difluoroethoxy)azetidin-1-yl)cyclohexyl)-7-(6-((2S,6R)-2,6-dimethylmorpholino)pyridin-3-yl)-2,4-dimethyl-N-((6-methyl-4-(methylthio)-2-oxo-1,2-dihydropyridin-3-yl)methyl)benzo[d][1,3]dioxole-5-carboxamide] | 10.7 | 20.5 | 27.1 | 72.5 |  |  |  | ≥ 70 |  | ≥ 70 | ≤ 30 |  |  | +++ (+++: ≥70%) | +++ (+++: ≥70%) | +++ (+++: ≥70%) |  |  | 
4 | CSc1cc(C)[nH]c(=O)c1CNC(=O)c1cc(-c2ccc(N3C[C@@H](C)O[C@@H](C)C3)nc2)c2c(c1C)OC(C)([C@H]1CC[C@H](N3CC(OCC(F)F)C3)CC1)O2 (stereo partly drawn) [Compound 104, 2-(trans-4-(3-(2,2-difluoroethoxy)azetidin-1-yl)cyclohexyl)-7-(6-((2S,6R)-2,6-dimethylmorpholino)pyridin-3-yl)-2,4-dimethyl-N-((6-methyl-4-(methylthio)-2-oxo-1,2-dihydropyridin-3-yl)methyl)benzo[d][1,3]dioxole-5-carboxamide] |  |  |  |  | 19.9 | 37.0 | 82.6 |  |  |  |  |  |  | + (+: ≤30%) | ++ (++: more than 30% and less than 70%) | ++ (++: more than 30% and less than 70%) | +++ (+++: ≥70%) | +++ (+++: ≥70%) | + (+: ≤30%)
5 | COC1CN([C@H]2CC[C@H](C3(C)Oc4c(-c5ccc(N6C[C@@H](C)O[C@@H](C)C6)nc5)cc(C(=O)NCc5c(SC)cc(C)[nH]c5=O)c(C)c4O3)CC2)C1 (stereo partly drawn) [Compound 106, 7-(6-((2S,6R)-2,6-dimethylmorpholino)pyridin-3-yl)-2-(trans-4-(3-methoxyazetidin-1-yl)cyclohexyl)-2,4-dimethyl-N-((6-methyl-4-(methylthio)-2-oxo-1,2-dihydropyridin-3-yl)methyl)benzo[d][1,3]dioxole-5-carboxamide] | 34.2 | 69.1 | 90.6 | 99.9 |  |  |  | ≥ 70 | ≤ 30 | ≥ 70 | 30 to 70 | 30 to 70 | ≤ 30 |  |  |  |  |  | 
6 | CSc1cc(C)[nH]c(=O)c1CNC(=O)c1cc(-c2ccc(N3C[C@@H](C)O[C@@H](C)C3)nc2)c2c(c1C)OC(C)([C@H]1CC[C@H](N(C)CC(F)F)CC1)O2 (stereo partly shown) [Compound 109] | 22 | 35.2 | 52.4 | 91.6 |  |  |  | ≥ 70 | ≤ 30 | ≥ 70 | ≤ 30 | 30 to 70 | 30 to 70 |  |  |  |  |  | 
7 | CSc1cc(C)[nH]c(=O)c1CNC(=O)c1cc(-c2ccc(N3C[C@@H](C)O[C@@H](C)C3)nc2)c2c(c1C)OC(C)([C@H]1CC[C@H](N(C)C(C)C)CC1)O2 (stereo partly drawn) [Compound 110, 7-(6-((2S,6R)-2,6-dimethylmorpholino)pyridin-3-yl)-2-(trans-4-(isopropyl(methyl)amino)cyclohexyl)-2,4-dimethyl-N-((6-methyl-4-(methylthio)-2-oxo-1,2-dihydropyridin-3-yl)methyl)benzo[d][1,3]dioxole-5-carboxamide] | 52 | 91.9 | 99.8 | 100 |  |  |  | ≥ 70 | ≤ 30 | ≥ 70 | ≤ 30 | 30 to 70 | ≤ 30 |  |  |  |  |  | 

Second part, led by results:

Row | inhibition at 0.005 µM (EZH1) [%] | inhibition at 0.01 µM (EZH1; 10nM test substance) [%] | inhibition at 0.005 µM (EZH2; 5nM test substance) [%] | inhibition at 0.01 µM (EZH2; 10nM test substance) [%] | Enzyme inhibition % EZH1 (EZH1; 10nM test substance, 0.01 µM) [%] | Enzyme inhibition % EZH2 (EZH2; 5nM test substance, 0.005 µM) [%] | Enzyme inhibition % EZH2 (EZH2; 10nM test substance, 0.01 µM) [%] | Structure (SMILES) | inhibition at 1 µM (Lovo cells) [%] | inhibition at 1 µM (MIA-PaCa-2 cells) [%] | inhibition at 1 µM (G401 cells) [%] | inhibition at 1 µM (NCI-H1299 cells) [%] | inhibition at 1 µM (SW-13 cells) [%] | inhibition at 1 µM (MKN-45 cells) [%] | % inhibition rate MIA-Paca2 (MIA-PaCa-2 cells) | % inhibition rate SW-13 (SW-13 cells) | % inhibition rate MKN -45 (MKN-45 cells) | % inhibition rate LoVo (Lovo cells) | % inhibition rate G401 (G401 cells) | % inhibition rate NCI-H129 9 (NCI-H1299 cells)
8 | 28.1 | 62.1 | 86.7 | 100 |  |  |  | CCN(C)[C@H]1CC[C@H](C2(C)Oc3c(-c4ccc(N5C[C@@H](C)O[C@@H](C)C5)nc4)cc(C(=O)NCc4c(SC)cc(C)[nH]c4=O)c(C)c3O2)CC1 (stereo partly drawn) [Compound 111, 7-(6-((2S,6R)-2,6-dimethylmorpholino)pyridin-3-yl)-2-(trans-4-(ethyl(methyl)amino)cyclohexyl)-2,4-dimethyl-N-((6-methyl-4-(methylthio)-2-oxo-1,2-dihydropyridin-3-yl)methyl)benzo[d][1,3]dioxole-5-carboxamide] | ≥ 70 | ≤ 30 | ≥ 70 | ≤ 30 | 30 to 70 | ≤ 30 |  |  |  |  |  | 
9 | 24.3 | 40.7 | 58.5 | 97 |  |  |  | CSc1cc(C)[nH]c(=O)c1CNC(=O)c1cc(-c2ccc(N3C[C@@H](C)O[C@@H](C)C3)nc2)c2c(c1C)OC(C)([C@H]1CC[C@H](N(C)CCc3ccccc3)CC1)O2 (stereo partly drawn) [Compound 112, 7-(6-((2S,6R)-2,6-dimethylmorpholino)pyridin-3-yl)-2,4-dimethyl-2-(trans-4-(methyl(phenethyl)amino)cyclohexyl)-N-((6-methyl-4-(methylthio)-2-oxo-1,2-dihydropyridin-3-yl)methyl)benzo[d][1,3]dioxole-5-carboxamide] | ≥ 70 | ≤ 30 | ≥ 70 | ≤ 30 | 30 to 70 | 30 to 70 |  |  |  |  |  | 
10 | 32.5 | 68.8 | 96.7 | 100 |  |  |  | CSc1cc(C)[nH]c(=O)c1CNC(=O)c1cc(-c2ccc(N3C[C@@H](C)O[C@@H](C)C3)nc2)c2c(c1C)OC(C)([C@H]1CC[C@H](N(C)CCCC(F)(F)F)CC1)O2 (stereo partly shown) [Compound 113] | ≥ 70 | ≤ 30 | ≥ 70 | ≤ 30 | 30 to 70 | ≤ 30 |  |  |  |  |  | 
11 | 28.6 | 38.2 | 45.8 | 91.7 |  |  |  | CSc1cc(C)[nH]c(=O)c1CNC(=O)c1cc(-c2ccc(N3C[C@@H](C)O[C@@H](C)C3)nc2)c2c(c1C)OC(C)([C@H]1CC[C@H](N(C)C3CCCCC3)CC1)O2 (stereo partly drawn) [Compound 114, 2-(trans-4-(cyclohexyl(methyl)amino)cyclohexyl)-7-(6-((2S,6R)-2,6-dimethylmorpholino)pyridin-3-yl)-2,4-dimethyl-N-((6-methyl-4-(methylthio)-2-oxo-1,2-dihydropyridin-3-yl)methyl)benzo[d][1,3]dioxole-5-carboxamide] | ≥ 70 | ≤ 30 | ≥ 70 | ≤ 30 | 30 to 70 | ≤ 30 |  |  |  |  |  | 
